# Assay results: patent US20030220312A1, “Epoxy-steroidal aldosterone antagonist and calcium channel blocker combination therapy for treatment of cardiovascular disorders” (G.D. Searle & Co., priority 2000, published 2003)
# Experiments:
# [1] = Thermogravimetry / DSC of eplerenone solvates (desolvation); format: physicochemical; conditions: eplerenone solvate of the named solvent; extrapolated from final solvent weight loss step, thermogravimetric analysis at 10° C./minute under nitrogen purge
# Method: Each sample (1-10 mg) was placed in an unsealed aluminum pan and heated at 10° C./minute.
# Thermogravimetric analysis of solvates was performed using a TA Instruments TGA 2950 thermogravimetric analyzer. Samples were placed in an unsealed aluminum pan under nitrogen purge. Starting temperature was 25° C. with the temperature increased at a rate of about 10° C./minute.
# [2] = Form H content of the Form H seeding product by DSC; format: physicochemical; conditions: cooling rate (0) 1.5° C./min, cooling endpoint (0) 25° C., 100.8% eplerenone seeded with Form H
# From the text: The X-ray powder diffraction model, however, had not been tested for linearity beyond about 15% Form H. This experiment was the only one of the four experiments of this Example where Form H was created in the absence of the diepoxide.
# [3] = X-ray powder diffraction estimate of Form H content of dried solids; format: physicochemical; conditions: for Estimated Weight Percent of Form H: dried solids from methyl ethyl ketone crystallization
# Method: The weight percent of the diepoxide or 11,12-epoxide in each sample is given in Tables X-6A and X-6B, respectively. A micro-flea magnetic stirrer was added to each scintillation vial along with 1 mL of methyl ethyl ketone. The vials were loosely capped and the solid dissolved by heating to reflux on a hot plate with magnetic stirring. Once the solids were dissolved, the solutions were allowed to cool to room temperature on the hot plate. Magnetic stirring was maintained during the cooling period. After the solutions reached room temperature, the solids were collected by vacuum filtration and immediately analyzed by X-ray powder diffraction (XPRD). The solids were then placed in a 100° C. oven and dried for one hour at ambient pressure. The dried solids were analyzed by XPRD for Form H content by monitoring the area of the Form H diffraction peak at about 12.1 degrees two theta. All XPRD diffraction patterns were recorded using an Inel Multipurpose Diffractometer.
# Variables in the design of the experiments included cooling rate, starting material purity level, and end point temperature of crystallization.
# High endpoint was defined as 45° C. and low endpoint was defined as 5° C. High cooling rate was defined as 3° C./minute cooling and low cooling rate was defined as 0.1° C./minute cooling.
# After a background reading was taken with the FTIR, 250 mL of methyl ethyl ketone was charged to a 1 L Mettler RC-1, MP10 reactor and stirred at 100 rpm. […] Agitation was increased to 500 rpm to suspend solids and the batch temperature was increased to 80° C. […] Black or white specks generally were visible in the resulting transparent solution. The batch temperature was then ramp cooled at the desired rate to the desired endpoint, where it was maintained for one hour before being pulled into a transfer flask and filtered. […] reactor, transfer flask and cake were then washed with 120 mL methyl ethyl ketone. Once the wash was pulled through the cake, the stopped. About 10 grams of each wet cake were dried in a vacuum oven under nominal conditions of 75° C. with a light nitrogen bleed. […]
# [4] = system: patients with mild to moderate hypertension; test: Example 19 clinical study: eplerenone versus placebo co-administered with a calcium-channel blocker; format: in vivo, human
# From the text: This multicenter, randomized, double-blind, placebo-controlled, placebo run-in, parallel group trial involving a minimum of 120 randomized patients with hypertension (seated diastolic blood pressure [seDBP] ≧95 mmHg and <110 mmHg and seated systolic BP [seSBP] <180 mmHg while taking a CCB) will consist of a one- to two-week pretreatment screening period followed by a two- to four-week single-blind placebo run-in period and an 8-week double-blind treatment period. Eligible patients will be patients currently receiving a CCB as part of their antihypertensive medication. […] The dose will not be changed for patients with adequate BP control. […] If the dose has been increased at Week 2, the patient will be reassessed at Week 6. […] If BP is uncontrolled at Week 6 and the dose has been increased at Week 2 or Week 4, the patient must be withdrawn from the study. If symptomatic hypotension (i.e., lightheadedness, dizziness, or syncope associated with low BP) occurs at any time during the study, or if DBP is ≧110 mmHg or SBP is ≧180 mmHg at any time during the trial, the patient must be withdrawn. Patients will receive study medication for a total of 8 weeks.
# Patients will return to the clinic for evaluations at Weeks 0 (baseline), 2, 4, 6, 8, and 9. Heart rate, BP, adverse events and concomitant medication will be assessed at each visit. Hematology and biochemistry evaluations and urinalysis for safety will be at Weeks 0, 8, and 9. Serum potassium levels will be determined at Weeks 0 (baseline), 2, 4, 6, 8, and 9. Plasma renin, serum aldosterone, and plasma cortisol will be determined at Weeks 0 and 8. A 12-lead electrocardiogram and physical examination will be done at screening and at Week 9.
# The study will consist of a one- to two-week pretreatment screening period followed by a two- to four-week single-blind placebo run-in treatment period, prior to randomization to an eight-week double-blind treatment period.
# Eligible patients will be either currently receiving a CCB alone, or receiving a CCB as part of their antihypertensive medication. […] The dose will not be changed for patients with adequate BP control. […] If the dose has been increased at Week 2, the patient will be reassessed at Week 6. The dose of study medication will not be changed for patients with adequate BP control. […] If BP is uncontrolled at Week 6 and the dose has been increased at Week 2 or Week 4, the patient must be withdrawn from the study. The dose of study medication will not be changed for patients with adequate BP control. If symptomatic hypotension (i.e., lightheadedness, dizziness, or syncope associated with low BP) occurs at any time during the study, or if DBP is ≧110 mmHg or SBP is ≧180 mmHg at any time during the study, the patient must be withdrawn. Patients will receive study medication for a total of eight weeks.
# Patients will return to the clinic for evaluations at Weeks 0, 2, 4, 6, 8, and 9. Heart rate, BP, adverse events and concomitant medication will be assessed at each visit. Hematology and biochemistry evaluations and urinalysis for safety will be at Weeks 0, 8, and 9. Serum potassium levels will be determined at Weeks 0, 2, 4, 6, 8, and 9. Plasma renin, serum aldosterone, and plasma cortisol will be determined at Weeks 0 and 8. […]
# BP evaluations will be analyzed at each visit using two-way analysis of covariance (ANCOVA) with the baseline measurement as the covariate and treatment and center as factors. […]
# [5] = system: rats with myocardial infarction; test: Assay D: Myocardial Infarction Rat Model (coronary ligation); format: in vivo; conditions: combination of calcium channel blocker and eplerenone versus either component alone, six weeks, expected
# Method: Assay “D”: Myocardial Infarction Rat Model: Male rats are anesthetized and the heart is exteriorized following a left sided thoracotomy. The left anterior descending coronary artery is ligated with a suture. The thorax is closed and the animal recovers. Sham animals have the suture passed through without ligation. One week prior to the surgery, animals to undergo infarction are divided into separate groups and drug treatment is begun. Groups of animals are administered vehicle, calcium channel blocker alone, eplerenone alone, and combinations of calcium channel blocker and eplerenone, at various doses, as follow: After six weeks, systolic and diastolic blood pressure, left ventricular end diastolic pressure, left ventricular dP/dT, and heart rate are evaluated. The hearts are removed, weighed, measured and fixed in formalin. Collagen content of heart sections are evaluated using computerized image analysis of picrosirius stained sections.
# [6] = system: patients with heart failure after an acute myocardial infarction; test: Example 20 clinical study: eplerenone plus CCB in heart failure following acute myocardial infarction; format: in vivo, human; conditions: expected
# From the text: Secondary endpoints include cardiovascular morbidity and mortality. […] (a) pulmonary edema (bilateral posttussive crackles extending at least 1⁄3 of the way up the lung fields in the absence of significant chronic pulmonary disease); or (b) chest x-ray showing pulmonary venous congestion with interstitial or alveolar edema; or (c) auscultatory evidence of a third heart sound (S3) with persistent tachycardia (>100 beats per minute). Eligible patients may be identified for inclusion at any time following emergency room evaluation and presumptive diagnosis of AMI with HF. […] Patients with implanted cardiac defibrillators are excluded. Patients will receive CCB therapy and may have received anticoagulants and antiplatelet agents, and may have received thrombolytics or emergency angioplasty. […] Serum potassium will be determined at 48 hours after initiation of treatment, at 1 and 5 weeks, at all other scheduled study visits, and within one week following any dose change. […] Vital signs (seated heart rate and BP), New York Heart Association (NYHA) functional class, adverse events, and selected concurrent medications will be recorded at every visit. […]
# hypertensive rats = test: Assay C: Hypertensive Rat Model (renal artery clip); format: in vivo; conditions: combination of calcium channel blocker and eplerenone versus either component alone, 12 to 24 weeks, expected
# From the text: Assay “C”: Hypertensive Rat Model Male rats are made hypertensive by placing a silver clip with an aperture of 240 microns on the left renal artery, leaving the contralateral kidney untouched. Sham controls undergo the-same procedure but without attachment of the clip. One week prior to the surgery, animals to be made hypertensive are divided into separate groups and drug treatment is begun. […] The hearts are removed, weighed, measured and fixed in formalin. Collagen content of heart sections are evaluated using computerized image analysis of picrosirius stained sections.
# [7] = system: myocardial fibrosis in animal models; conditions: literature (Klug et al; Brilla et al); cited from earlier work
# [8] = CCB and eplerenone compared to CCB and placebo, Week 8
# [9] = eplerenone 50-100 mg plus CCB versus CCB and placebo, eight weeks, hypertensive patients
Compound,Desolvation Temperature [1] [°C],further results
Propyl Acetate,130,–
Ethyl Propionate,122,–
Isobutyl Acetate,112,–
Toluene,83,–
CCCCCCCCO [n-Octanol],116,–
Propylene Glycol,188,–
Acetone,117,–
Methyl Acetate,103,–
Methyl Ethyl Ketone,89,–
Chloroform,125,–
Isopropanol,121,–
Tetrahydrofuran,136,–
"COC(=O)[C@@H]1CC2=CC(=O)CC[C@]2(C)[C@@]23O[C@@H]2C[C@@]2(C)[C@@H](CC[C@@]24CCC(=O)O4)[C@H]13 [eplerenone, pregn-4-ene-7,21-dicarboxylic acid, 9,11-epoxy-17-hydroxy-3-oxo, γ-lactone, methyl ester, (7α,11α,17α)-]",–,"Weight Percent Form H when analyzed by DSC [2]: 100 Weight Percent; Weight Percent Form H (XPRD) ([3]; cooling rate (+) 3° C./min, cooling endpoint (+) 45° C., impurity level (++) 61.1% purity eplerenone starting material, appears to be mixture of Form H and diepoxide): 100^5 Weight Percent; Estimated Weight Percent of Form H ([3]; 0% diepoxide in starting eplerenone mixture): None; Estimated Weight Percent of Form H ([3]; 1% diepoxide in starting eplerenone mixture): None; change in active renin levels [4, 8]: greater increase; change in aldosterone levels [4, 8]: greater increase; change in mean diastolic blood pressure [4, 9]: greater for the dual therapy group, compared to monotherapy, but this difference did not reach statistical significance; change in systolic blood pressure [4, 9]: significant reduction; serious adverse events ([4]; eplerenone added to CCB therapy, eight weeks): no serious adverse events; cardiac performance [5]: improvements in cardiac performance; all cause mortality (primary end point) ([6]; eplerenone plus CCB relative to CCB alone): Improvement; secondary end points (cardiovascular mortality, hospitalizations, atrial fibrillation, stroke, quality of life) ([6]; eplerenone plus CCB versus CCB alone): Beneficial effects; cardiac performance (hypertensive rats): improvements in cardiac performance"
CCCCO [n-Butanol],103,–
CC(=O)S[C@@H]1CC2=CC(=O)CC[C@]2(C)[C@H]2CC[C@@]3(C)[C@@H](CC[C@@]34CCC(=O)O4)[C@H]12 [spironolactone],–,myocardial fibrosis [7]: prevents myocardial fibrosis
Butyl Acetate,108,–
Ethanol,166,–
t-Butyl Acetate,109,–
